Measurements from PMC5055185, “Dual pharmacological inhibition of glutathione and thioredoxin systems synergizes to kill colorectal carcinoma stem cells” (Cancer Medicine, 2016).
pIC50: −log10 of the molar value. “And” between values parts separate entries of the source, which are not always exact repeats. Equal entries are not always repeated.

What was measured:
HCT116 CRC cell line = assay: intracellular ROS, CellROX Deep Red flow cytometry, HCT116; format: cell-based, human; details: treated 1 h (menadione 100 μmol/L, 30 min)
Description: In order to estimate the effect of each inhibitor described above, intracellular reactive oxygen species (ROS) were measured using CellROX™ Deep Red reagent (Molecular Probes). Briefly, cells were seeded on 6‐well plates at 1 × 10^6 cells per well. After cells reached 90% confluence, cells were treated with designated reagents for 1 h. CellROX™ Deep Red reagent was added at a final concentration of 5 μmol/L to the culture medium and then incubated for 30 min at 37°C. Subsequently, the medium was removed and the cells were washed with PBS and detached using 0.25% trypsin‐EDTA. The resulting fluorescence was measured using a FACS Calibur flow cytometer (Becton Dickinson, Franklin Lakes, NJ). Menadione (100 μmol/L) was added 30 min before CellROX™ Deep Red reagent treatment as a reference ROS inducer. […] CD44v9 positivity of CTOS cells was analyzed as follows: Cancer spheroids were dispersed with serial treatments of TrypLE™ (20 min, GIBCO) and Accumax™ (10 min, Innovative Cell Technologies, San Diego, CA). Cell surface CD44v9 was stained with CD44v9 antibody (Cosmobio) as well as PE‐conjugated anti‐rat IgG2a (Becton Dickinson). The fluorescence was measured using a FACS Calibur flow cytometer (Becton Dickinson). Since CTOSs contained abundant auto‐fluorescent cells, we defined FL2^+FL1^− cells as authentic PE‐positive (Fig. S4). Thus, CD44v9‐positive rate was defined as FL2^+FL1^−/total live cells and CD44v9‐positive fraction was further gated and split between CD44v9^low and CD44v9^high (Fig. S4), to calculate the mean fluorescent intensity of CD44v9^high fraction.
One hour after each drug treatment, cells were stained with CellROX DeepRed and intracellular ROS were quantified with FACS. Upper: histogram of fluorescent signal is represented. Lower. representative mean fluorescent intensity scores are shown. Note that without drug treatment (Control), intracellular ROS is higher in OUMS36 and TIG3 (embryonic fibroblasts) but lower in DLD-1 and HCT116 (CRC cell lines). ROS in DLD-1 was increased by auranofin. ROS in HCT116 was increased by all the inhibitors tested. Menadione was used as a reference chemical to increase ROS.

[1] = test system: TIG‐119 dermal fibroblasts; assay: cell survival (trypan blue exclusion, 5 days), TIG-119; format: cell-based, human; details: for pIC50: TIG119, cellular survival, 5 days
Description: Modified procedures of CTOS culture 16 were described elsewhere 10. […] The culture medium was serum‐free advanced DMEM/F‐12 (GIBCO, Waltham, MA) supplemented with FGF‐2 (10 ng/mL, ReproCell, Yokohama, Japan), penicillin ([…], Wako, Osaka, Japan), streptomycin (0.1 mg/mL,Wako), gentamicin (50 μg/mL, Wako), and fungizone (0.25 μg/mL, GIBCO). DLD‐1 and HCT116 CRC cell lines were purchased from JCRB Cell Bank (Osaka, Japan) and RIKEN BioResource Center (Ibaraki, Japan), respectively. In order to estimate pharmacological side effects against normal tissues, human diploid fibroblasts were purchased (JCRB Cell Bank) as model cells. The origins of the fibroblasts were as follows: OUMS‐36 (embryo), TIG‐3 (fetal lung), TIG‐111 (dermal fibroblasts [DFs] from individual), TIG‐119 (DFs from individual), and TIG‐102 (DFs from individual). Adult DFs were purchased from Kurabo (Osaka, Japan). CRC cell lines and fibroblasts were maintained under supplier‐recommended culture conditions. Since the culture conditions are different between fibroblasts and CTOSs, we need to be cautious about the interpretation of data (i.e., lateral comparison between them). […] Colorectal CTOSs display augmented survival through maintaining epithelial structure with E‐cadherin 16. On the other hand, the establishment of conventional cell lines (adherent culture) are much less efficient because constant cell division and autonomous survival are required for the procedure. When we choose CTOSs instead of cancer cell lines, we lose the equivalent condition (adherent culture) as a trade‐off.
Each drug's half‐maximal inhibitory concentration (IC50) was calculated based on live cell number ratios (drug treated/untreated × 100%) obtained from serial dilution of drug concentration. The length of drug exposure was 5 days. Each number of live cells was counted automatically by trypan blue exclusion (LUNA automated cell counter, Logos Biosystems, Anyang, South Korea). Cancer spheroids were dispersed with serial treatments (20 min each) of TrypLE™ and Accumax™. Thus, IC50 was determined based on cellular survival, but not on proliferation. We chose the survival index instead of the speed of growth because CTOSs in vitro show very slow proliferation (quiescence), which is one of the hallmarks of CSCs 2. The IC50 values of fibroblasts were accordingly determined based on cellular survival index during quiescence (by contact inhibition). […] To quantify the synergism of two distinct drugs, Combination Index (CI) was calculated 21. A CI value of about 1 (0.90–1.10) was defined as nearly additive and CI values more than (>1.10) and less than (<0.90) were defined as antagonism and synergism, respectively. IC50 and CI were determined using CompuSyn software (ComboSyn, Paramus, NK).

Structure (SMILES) | intracellular ROS response (HCT116 CRC cell line) | pIC50 [1] | Ratio of survived cells (Drugs treated/Untreated), Average ([1]; TIG-119, Aura 1 microM) [%] | Ratio of survived cells (Drugs treated/Untreated), Average ([1]; TIG-119, Aura 2 microM) [%] | Ratio of survived cells (Drugs treated/Untreated), Average ([1]; TIG-119, Aura 4 microM) [%] | Ratio of survived cells (Drugs treated/Untreated), Average ([1]; TIG-119, Pipe 2.5 microM) [%] | Ratio of survived cells (Drugs treated/Untreated), single passage points # ([1]; TIG-119, Pipe 2.5 microM) | Ratio of survived cells (Drugs treated/Untreated), Average ([1]; TIG-119, Pipe 5 microM) [%] | Ratio of survived cells (Drugs treated/Untreated), Average ([1]; TIG-119, Pipe 10 microM) [%]
CC[PH](CC)(CC)[Au][S][C@@H]1O[C@H](COC(C)=O)[C@@H](OC(C)=O)[C@H](OC(C)=O)[C@H]1OC(C)=O [Aura, Auranofin] | increase of ROS | 5.93 | 53.3333 | 31.6667 | 5 |  |  |  | 
COc1cc(/C=C/C(=O)N2CCC=CC2=O)cc(OC)c1OC [Pipe, Piperlongumine] | increase of ROS | 5.13 |  |  |  | 95.75 | 83% and 121% and 96% | 80.75 | 27
